Laboratory results: PMC6369734, “Spy vs. spy: selecting the best reporter for ^19F NMR competition experiments” (Chemical Communications (Cambridge, England), 2019)

What was measured:
[1] = molecular target: T1, VHL (VBC complex) (Homo sapiens, UniProt P40337); assay: 19F CPMG NMR transverse relaxation rate (R2) and R2 contrast (C2) of spy molecule with and without protein; assay type: binding
T1 construct: equimolar complex of pVHL54-213, eloB1-104 and; made in house; host or cells: E. coli
Text: Due to the large CSA of fluorine and the significant differences in the fluorine isotropic chemical shift (δF) between the free and bound states, the transverse relaxation rate (R2) is a well-established sensitive parameter to detect ligand binding.[4] Therefore, fluorine NMR experiments including a Carr–Purcell–Meiboom–Gill (CPMG) spin-echo filter[10] before acquisition were employed to monitor ligand binding to VHL by measuring peak intensity, as changes in other NMR parameters, such as chemical shift and peak width, were not as significant. The R2 values of the CF3 peak of each compound in the absence and in the presence of protein were determined by performing multiple ^19F CPMG experiments varying the CPMG filter (Fig. 2a). To quantify the shift in R2 upon binding, the R2 contrast (C2)[11] was determined. Ideally, a good spy molecule should have a large increase in R2 (fast relaxation) when protein is present, resulting in a large assay window for the competition experiments (Fig. 2b).
5. Measurement of the transverse relaxation rates by 19F CPMG NMR
All the NMR experiments were performed in a 500 MHz Bruker AVANCE N MR spectrometer equipped with a CPQCI -F cryoprobe. To measure the transverse relaxation rates (R 2), a solution of each spy molecule at 100 μM was prepared in 50 mM potassium phosphate monobasic (KH2PO4), pH 7.5, 100 mM NaCl, 1 mM TCEP, 2% (v/v) DMSO, 20% D2O and 10 µM trifluoroacetic acid (TFA). For each solution, 19F CPMG experiments […]
Due to the fast relaxation of molecules 21 and 22, these experiments were repeated with shorter CPMG filters (50, 100, 150, 200, 300, 400, 700 and 1000 ms). The fluorine peaks were integrated and plotted against the resp ective CPMG filters. The R 2 relaxation rates were obtained from fitting the data as a n exponential decay (GraphPad Prism 6) according to the equation below: [7]
Where I(t) is the 19F signal intensity or integral, t is the total CPMG filter in seconds, I(0) is the signal intensity when t = 0. To obtain the R2 upon addition of prot ein, all the experiments above were repeated in presence of VBC at 1 µM. Experiments were performed as triplicates and the R 2 contrasts (C2) were obtained according to the equation below: [8]
Where R2Free is the R2 obtained for the spy molecule free in solution and R2Observed is the R2 obtained with the spy molecule in presence of VBC. The raw data, fitting, R2 and C2 values for each spy molecule can be found in section 8.1. For the R2 measurements using molecule 19 at varied concentrations of spy molecule and protein, see section 8.2 . For the R2 measurements using spy molecules 6 and 11 (used to generate figures S 2, S3 and S4) see

[2] = molecular target: T2, VHL (VBC complex), Hyp site (Homo sapiens, UniProt P40337); assay: 19F NMR competition experiment, displacement of spy molecule 19; assay type: binding; details: 19 at 50 μM, VHL at 1.0 μM
T2 construct: equimolar complex of pVHL54-213, eloB1-104 and; made in house; host or cells: E. coli
Method: Lastly, the utility and scope of using spy molecule 19 to quantify binding of competitors across a wide range of affinities was evaluated (Fig. 5). Five compounds were titrated against 19 at 50 μM and VHL at 1.0 μM. In all cases the displacement of the spy molecule was concentration-dependent and the Ki (inhibition constant) values were derived from the respective IC50 using a competitive binding model.[12] The measured binding affinities compared remarkably well with the respective values obtained by SPR across 4-log units. The same experiment was attempted with spy molecules 6 and 11 under the same conditions, and in these cases, the assay could not differentiate the binders as efficiently (ESI, ^† Fig. S2–S4), since this would require higher protein concentration.
6. Competition experiments by 19F NMR
As full measurements of R2 would be very time consuming, the competition experiments were performed using a single 19F CPMG experiment (decoupled) per sample with a fixed CPMG delay. To determine the best CPMG delay for a given spy molecule and assay condition, the procedure described in Figure S5 was developed based on the transverse relaxation rate equations.[7] By knowing the relaxation rates of the spy molecule free in solution and in presence of protein, the CPMG delay where the difference between the NMR peaks is maximum is hereon referred as dmax. The dmax for all the conditions tested for each spy molecule can be found in section 8, together with the respective values of R2 and C2.
Method for selecting the best CPMG delay for competition experiments. With the transverse relaxation rates of the spy molecule free in solution (R2F, resulting in the blue plot) and bound to protein (R2B, resulting in the red plot), the difference between the two curves is described by I(t)D (cyan curve). To obtain dmax, the delay where the difference curve reaches its maximum, the first derivative of I(t)D was obtained and equalled to 0, subsequently isolating t (CPMG filter). […]

[3] = Spy molecule 100 μM + VBC 1 μM, supplement 8.1
[4] = Spy molecule 100 μM, no protein
[5] = Spy molecule 19 at 10 µM, VBC 0.125 μM
[6] = Spy molecule 19 at 10 µM, VBC 0.250 μM
[7] = Spy molecule 19 at 10 µM, VBC 0.500 μM
[8] = Spy molecule 19 at 10 µM, VBC 1.000 μM
[9] = Spy molecule 19 at 25 µM, VBC 0.125 μM
[10] = Spy molecule 19 at 25 µM, VBC 0.250 μM
[11] = Spy molecule 19 at 25 µM, VBC 0.500 μM
[12] = Spy molecule 19 at 25 µM, VBC 1.000 μM
[13] = Spy molecule 19 at 50 µM, VBC 0.125 μM
[14] = Spy molecule 19 at 50 µM, VBC 0.250 μM
[15] = Spy molecule 19 at 50 µM, VBC 0.500 μM
[16] = Spy molecule 19 at 50 µM, VBC 1.000 μM
[17] = spy concentration not given, VBC 0.125 μM
[18] = spy concentration not given, VBC 0.250 μM
[19] = spy concentration not given, VBC 0.500 μM
[20] = spy concentration not given, VBC 1.000 μM

Question: Which results are given for `CC(=O)N1C[C@H](O)C[C@H]1C(=O)NCc1ccc(Br)cc1C(F)(F)F` [Compound 10]?
Answer: R2 ([1]; Spy molecule 100 μM + VBC 1 μM): 2.596 ± 0.046 s⁻¹; R2 contrast – C2 [1, 3]: 51.9 ± 2.1%; R2 [1, 4]: 1.249 ± 0.018 s⁻¹; Displacement of spy molecule 19 [2]: concentration dependent

Question: What does the source list for `CC(C)(C)CC(=O)N1C[C@H](O)C[C@H]1C(=O)NCc1ccc(Br)c(C(F)(F)F)c1` [Compound 3]?
Answer: R2 ([1]; Spy molecule 100 μM + VBC 1 μM): 1.847 ± 0.033 s⁻¹; R2 contrast – C2 [1, 3]: 28.2 ± 2.3%; R2 [1, 4]: 1.326 ± 0.025 s⁻¹; Displacement of spy molecule 19 [2]: concentration dependent

Question: Which results are given for `O=C(NCc1ccc(Br)cc1)C1CC(O)CN1C(=O)CC(F)(F)F` (stereo not drawn) [Compound 19]?
Answer: R2 ([1]; Spy molecule 100 μM + VBC 1 μM): 5.096 ± 0.186 s⁻¹; R2 contrast – C2 [1, 3]: 70.1 ± 4.5%; R2 [1, 4]: 1.526 ± 0.041 s⁻¹; R2 ([1]; Spy molecule 19 at 10 µM, VBC 0.000 μM): 1.464 ± 0.096 s⁻¹; R2 [1, 5]: 2.346 ± 0.193 s⁻¹; R2 contrast – C2 [1, 5]: 35.0 ± 8.9%; R2 [1, 6]: 2.807 ± 0.131 s⁻¹; R2 contrast – C2 [1, 6]: 45.6 ± 5.3%; R2 [1, 7]: 4.288 ± 0.304 s⁻¹; R2 contrast – C2 [1, 7]: 64.4 ± 8.5%; R2 [1, 8]: 7.974 ± 0.727 s⁻¹; R2 contrast – C2 [1, 8]: 80.9 ± 11.7%; R2 ([1]; Spy molecule 19 at 25 µM, VBC 0.000 μM): 1.582 ± 0.049 s⁻¹; R2 [1, 9]: 2.107 ± 0.095 s⁻¹; R2 contrast – C2 [1, 9]: 27.6 ± 5.1%; R2 [1, 10]: 2.811 ± 0.156 s⁻¹; R2 contrast – C2 [1, 10]: 45.7 ± 6.3%; R2 [1, 11]: 4.008 ± 0.200 s⁻¹; R2 contrast – C2 [1, 11]: 61.9 ± 5.9%; R2 [1, 12]: 6.934 ± 0.348 s⁻¹; R2 contrast – C2 [1, 12]: 78.0 ± 6.4%; R2 ([1]; Spy molecule 19 at 50 µM, VBC 0.000 μM): 1.475 ± 0.059 s⁻¹; R2 [1, 13]: 1.969 ± 0.071 s⁻¹; R2 contrast – C2 [1, 13]: 22.5 ± 4.2%; R2 [1, 14]: 2.316 ± 0.168 s⁻¹; R2 contrast – C2 [1, 14]: 34.1 ± 7.9%; R2 [1, 15]: 3.857 ± 0.121 s⁻¹; R2 contrast – C2 [1, 15]: 60.4 ± 3.8%; R2 [1, 16]: 6.424 ± 0.262 s⁻¹; R2 contrast – C2 [1, 16]: 76.2 ± 5.2%; R2 ([1]; spy concentration not given, VBC 0.000 μM): 1.392 ± 0.101 s⁻¹; R2 [1, 17]: 2.337 ± 0.335 s⁻¹; R2 contrast – C2 [1, 17]: 34.7 ± 15.3%; R2 [1, 18]: 3.678 ± 0.489 s⁻¹; R2 contrast – C2 [1, 18]: 58.5 ± 15.5%; R2 [1, 19]: 4.255 ± 0.566 s⁻¹; R2 contrast – C2 [1, 19]: 64.1 ± 15.8%; R2 [1, 20]: 7.063 ± 1.128 s⁻¹; R2 contrast – C2 [1, 20]: 78.4 ± 20.3%

Question: What does the source list for `CC(=O)NC(C(=O)N1CC(O)CC1C(=O)NCc1ccc(Br)cc1C(F)(F)F)C(C)(C)C` (stereo not drawn) [Compound 12]?
Answer: R2 ([1]; Spy molecule 100 μM + VBC 1 μM): 1.637 ± 0.028 s⁻¹; R2 contrast – C2 [1, 3]: 7.6 ± 2.4%; R2 [1, 4]: 1.512 ± 0.029 s⁻¹; Displacement of spy molecule 19 [2]: concentration dependent
